# Measurements: US20120028917A1, “Use Of N-(4-((3-(2-Amino-4-Pyrimidinyl)-2-Pyridinyl)Oxy)Phenyl)-4-(4-Methyl-2-Thienyl)-1-Phthalazinamine In The Treatment Of Antimitotic Agent Resistant Cancer” (Amgen Inc., priority 2009, published 2012)
# pEC50: −log10 of the molar value. Values joined by “and” are separate entries in the source; they are usually repeats but may differ in a detail not shown here. Equal values may be shown once.
# Columns and labels:
# MDA-MB-231 xenograft = test: Xenograft tumor growth inhibition (Example 3); assay type: in vivo, athymic nude mice; conditions: MDA-MB-231, Breast; oral BID, best of intermittent or continuous dose schedule
# Experimental: (§1) To investigate whether AMG 900-induced suppression of aurora kinase activity inhibits cell proliferation, the antiproliferative efficacy of AMG 900 was evaluated in-vivo in multiple human cancer xenograft models, including breast, colon, leukemia, lung, pancreatic, and uterine cancer models, grown in athymic nude mice. Mice were administered AMG 900 orally at 3.75, 7.5, or 15 mg/kg BID for 2 consecutive days per week or 3 mg/kg BID everyday for the duration of the study beginning when tumors were established. The reagents, solutions, equipment, formulation of AMG 900, tumor volume measurements and calculations were generally as described in Example 4 below.
# NCI-H460 xenograft = test: Xenograft tumor growth inhibition (Example 3); assay type: in vivo, athymic nude mice; conditions: NCI-H460, Lung; oral BID, best of intermittent or continuous dose schedule
# Experimental: as §1
# MES-SA xenograft = test: Xenograft tumor growth inhibition (Example 3); assay type: in vivo, athymic nude mice; conditions: Uterine, oral BID, best of intermittent or continuous dose schedule
# Experimental: as §1
# HCT 116 xenograft = test: Xenograft tumor growth inhibition (Example 3); assay type: in vivo, athymic nude mice; conditions: HCT 116, Colon; oral BID, best of intermittent or continuous dose schedule
# Experimental: as §1
# MiaPaCa2 xenograft = test: Xenograft tumor growth inhibition (Example 3); assay type: in vivo, athymic nude mice; conditions: MiaPaCa2, Pancreas; oral BID, best of intermittent or continuous dose schedule
# Experimental: as §1
# HL60 xenograft = test: Xenograft tumor growth inhibition (Example 3); assay type: in vivo, athymic nude mice; conditions: HL60, Leukemia; oral BID, best of intermittent or continuous dose schedule
# Experimental: as §1
# Colo 205 xenograft = test: Xenograft tumor growth inhibition (Example 3); assay type: in vivo, athymic nude mice; conditions: Colo 205, Colon; oral BID, best of intermittent or continuous dose schedule
# Experimental: as §1
# [1] = system: NCI-H460-Taxol-r xenograft; test: Xenograft tumor growth inhibition (Example 3); assay type: in vivo, athymic nude mice; conditions: Lung, oral BID, best of intermittent or continuous dose schedule
# Experimental: as §1
# (§2) The effect of AMG 900 was tested on the multidrug resistant cell line MES-SA Dx5 grown in vivo as a tumor xenograft. Mice were administered AMG 900 orally at 15 mg/kg BID for 2 consecutive days per week or 3.0 mg/kg BID everyday for the duration of the study. Dosing was initiated when tumors were established (10 days after tumor implantation).
# HCT15 xenograft = test: Xenograft tumor growth inhibition (Example 3); assay type: in vivo, athymic nude mice; conditions: HCT15, Colon; oral BID, best of intermittent or continuous dose schedule
# Experimental: as §1, §2
# NCI-H460 = test: Cell cycle DNA content assay (flow cytometry); assay type: cell-based; conditions: Homo sapiens, 24 h; NCI-H460, Lung, Parent line; read-out: EC50 @ 24 hours, ≧4N DNA content
# Experimental: (§3) NCI-H460 parental and NCI-H460 taxol-resistant cells were seeded at a density of 500,000 cells/well in a 6-well plate in 2 mL of appropriate complete media. The next day cells were treated with AMG 900 or taxol over a 6-point concentration range with a final DMSO concentration of 0.05% in media. After 24 hours, cells were pulsed with BrdU (1:100 dilution) and harvested. Cells were centrifuged at 1600 rpm for 4 minutes and the supernatant was aspirated. Cells were washed in 1× PBS and fixed in 900 μL of ice cold 90% methanol and stored at −20° C. Fixed cells were centrifuged at 2000 rpm for 4 minutes to remove 90% methanol. Cells were washed with 200 μL of wash buffer and stained with 200 μL of propidium iodide (PI) overnight at 4° C. in the dark. Data was acquired and analyzed by flow cytomety (LSRII). A threshold gate was applied according to +4N (same as ≧4N) DNA content and SubG1 positive populations based on DMSO-treated control and low/high drug-treated groups. The data was represented as a percentage of +4N DNA and SubG1 positive subpopulations. The +4N (same as ≧4N) DNA content or SubG1 cellular EC50 values were calculated using a 4-parameter equation. Lung tumor cell lines were treated with control (DMSO), AMG 900 or taxol over a 6-point dose range for 24 hours. Flow cytometric-based cell cycle analysis was performed to measure the percentage of ≧4N DNA content or SubG1 DNA content positive cells. The dose-response curves for AMG 900 represent the drug concentration plotted against the percentage of ≧4N DNA content positive cells. The dose-response curves for taxol represent the drug concentration plotted against the percentage of SubG1 DNA content positive cells. The EC50 values were calculated by 4-parameter fit model.
# NCI-H460-Taxol-r = test: Cell cycle DNA content assay (flow cytometry); assay type: cell-based; conditions: Homo sapiens, 24 h, Lung, Paclitaxel-selected, read-out: EC50 @ 24 hours, ≧4N DNA content
# Experimental: as §3
# [2] = system: NCI-H460-taxol resistant tumor xenografts; test: Growth of established NCI-H460-taxol resistant xenografts (Example 4); assay type: in vivo, athymic nude mice
# Experimental: To investigate whether AMG 900-induced suppression of aurora kinase activity inhibits cell proliferation, the antitumor efficacy of AMG 900 was evaluated in vivo against NCI-H460-taxol resistant tumor xenografts in athymic nude mice. Mice were dosed PO with AMG 900 (BID) either intermittently or continuously. Mice were dosed IP with paclitaxel (taxol) 5 days/week. An internal Amgen compound was used as a positive control in this study (data not shown). Tumors were measured twice per week. Treatment began on day 12 when the tumors were established. All groups were provided nutritional supplements on a daily basis throughout the study to maintain body weight. AMG 900 (free base) was formulated into suspension to concentrations of 1.5 and 0.3 mg/mL. […] The duration of the dosing phase for AMG 900 was three weeks, and two weeks for the taxol group. The tumors were measured with a digital caliper and the mice were weighed twice per week. Tumor volumes were calculated as follows: […] Tumor inhibition was calculated as follows: […] FIG. 5 illustrates the effects of AMG 900 and Taxol treatment on the growth of established H460-taxol resistant tumors. […] Tumors were measured twice per week. Treatment began 12 days after tumor implantation (arrow) when tumors were approximately 170 mm^3. Mice were dosed PO or IP once or twice daily for 3 weeks. Data represent mean ±SE for each group. *P values (not shown) correspond to statistical difference between groups treated with vehicle and AMG 900 or Taxol analyzed with repeated measure Sheffe's ANOVA over time using […]. The scheduled days listed in the legend represent days/ week. All groups were provided nutritional supplements throughout the study.
# [3] = 3mpk PO BID 7 days/week × 3 wks
# [4] = 15mpk PO BID 2 days ON/5 day OFF/week × 3 wks
smiles,measurement,setting,value
"Cc1csc(-c2nnc(Nc3ccc(Oc4ncccc4-c4ccnc(N)n4)cc3)c3ccccc23)c1 [AMG 900, N-(4-((3-(2-amino-4-pyrimidinyl)-2-pyridinyl)oxy)phenyl)-4-(4-methyl-2-thienyl)-1-phthalazinamine]",% TGI (tumor growth inhibition),MDA-MB-231 xenograft,82%
same,% TGI (tumor growth inhibition),NCI-H460 xenograft,85%
same,% TGI (tumor growth inhibition),MES-SA xenograft,86%
same,% TGI (tumor growth inhibition),HCT 116 xenograft,83%
same,% TGI (tumor growth inhibition),MiaPaCa2 xenograft,62%
same,% TGI (tumor growth inhibition),HL60 xenograft,68%
same,% TGI (tumor growth inhibition),Colo 205 xenograft,58%
same,% TGI (tumor growth inhibition),[1],66%
same,% TGI (tumor growth inhibition),HCT15 xenograft,51%
same,pEC50,NCI-H460,9.00
same,pEC50,NCI-H460-Taxol-r,9.00
same,% Inhibition (tumor growth),[2]; [3],60% and 60.4%
same,"Tumor volume, Mean",[2]; [3],771 mm^3
same,"Tumor volume, Median",[2]; [3],715.6 mm^3
same,% Inhibition (tumor growth),[2]; [4],66% and 65.7%
same,"Tumor volume, Mean",[2]; [4],689 mm^3
same,"Tumor volume, Median",[2]; [4],612.5 mm^3
